Source: patent US10736883B2, “Triazole furan compounds as agonists of the APJ receptor” (AMGEN INC., priority 2016, dated 2020)

These compounds were tested against APJ receptor (Homo sapiens (Human), UniProt P35414) (assay: [35S]GTPγS binding assay on membranes from CHO cells stably expressing human APJ receptor). Settings: membranes of CHO cells stably expressing human APJ receptor, means of several independent experiments, read-out: Activity hAPJ SPA EC50 IP.
Type: biochemical
Experimental: The human APJ receptor was cloned by polymerase chain reaction and the gene encoding the receptor was subcloned in pFLAG-CMV™-3 expression vector (Sigma, Saint Louis, Mo. USA) in-house at Amgen. A GTPγS binding assay was performed on membranes prepared from CHO cells stably expressing human APJ receptor. The optimum experimental conditions for the concentrations of GDP, MgCl2, and NaCl in the assay buffer were initially determined. The assay was performed in assay buffer [20 mM HEPES, pH 7.5, 5 mM MgCl2, and 0.1% (w/v) BSA with 200 mM NaCl, 3 μM GDP] and membranes expressing human APJ receptor/well along with WGA PS beads. The reaction was initiated by addition of 0.2 nM [^35S]GTPγS (Perkin Elmer Life and Analytical Sciences, Waltham USA) in the absence or presence of various ligands and incubated at RT for 90 min. Nonspecific binding was determined in the presence of 100 μM GTPγS and was always less than 0.2% of total binding. All the results presented are means of several independent experiments and analyzed by non-linear regression methods using commercially available program Prism (GraphPad, San Diego, Calif.) to obtain EC50 detailed in Table 26.

APJ receptor, sequence (P35414 whole entry): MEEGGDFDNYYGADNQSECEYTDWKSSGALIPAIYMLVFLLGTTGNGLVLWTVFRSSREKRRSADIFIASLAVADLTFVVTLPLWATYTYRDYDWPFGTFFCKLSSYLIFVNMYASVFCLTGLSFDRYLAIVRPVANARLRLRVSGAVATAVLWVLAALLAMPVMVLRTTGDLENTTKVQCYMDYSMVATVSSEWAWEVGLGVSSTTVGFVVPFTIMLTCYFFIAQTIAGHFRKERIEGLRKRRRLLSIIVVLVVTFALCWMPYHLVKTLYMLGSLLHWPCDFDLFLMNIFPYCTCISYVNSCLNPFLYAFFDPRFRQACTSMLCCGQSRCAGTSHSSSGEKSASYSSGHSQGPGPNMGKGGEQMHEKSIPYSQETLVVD

SMILES | EC50
CCc1ccc(-c2nnc(NS(=O)(=O)CCc3ncc(F)cn3)n2-c2c(OC)cccc2OC)o1 [Example 98.0, N-(4-(2,6-dimethoxyphenyl)-5-(5-ethyl-2-furanyl)-4H-1,2,4-triazol-3-yl)-2-(5-fluoro-2-pyrimidinyl)ethanesulfonamide] | 0.45 nM
COc1cccc(OC)c1-n1c(NS(=O)(=O)[C@@H](C)[C@H](O)c2cn(C)cn2)nnc1-c1ccc(C)o1 (single isomer, unassigned) [Example 273.0, (1R,2S)—N-(4-(2,6-Dimethoxyphenyl)-5-(5-methyl-2-furanyl)-4H-1,2,4-triazol-3-yl)-1-hydroxy-1-(1-methyl-1H-imidazol-4-yl)-2-propanesulfonamide or (1S,2R)—N-(4-(2,6-dimethoxyphenyl)-5-(5-methyl-2-furanyl)-4H-1,2,4-triazol-3-yl)-1-hydroxy-1-(1-methyl-1H-imidazol-4-yl)-2-propanesulfonamide] | 0.72 nM
COc1ncnc(OC)c1-n1c(NS(=O)(=O)CCc2ccc(Cl)cc2)nnc1-c1ccco1 [Example 253.0, 2-(4-Chlorophenyl)-N-(4-(4,6-dimethoxy-5-pyrimidinyl)-5-(2-furanyl)-4H-1,2,4-triazol-3-yl)ethanesulfonamide] | 15 nM
COc1cccc(OC)c1-n1c(NS(=O)(=O)[C@H](C)[C@H](O)c2ccc(F)cc2CO)nnc1-c1ccc(C)o1 (single isomer, unassigned) [Example 73.0] | 0.49 nM
CCc1ccc(-c2nnc(NS(=O)(=O)[C@@H](C)Cc3ncc(F)cn3)n2-c2c(OC)cccc2OC)o1 (single isomer, unassigned) [Example 97.0, (2S)—N-(4-(2,6-Dimethoxyphenyl)-5-(5-ethyl-2-furanyl)-4H-1,2,4-triazol-3-yl)-1-(5-fluoro-2-pyrimidinyl)-2-propanesulfonamide or (2R)—N-(4-(2,6-dimethoxyphenyl)-5-(5-ethyl-2-furanyl)-4H-1,2,4-triazol-3-yl)-1-(5-fluoro-2-pyrimidinyl)-2-propanesulfonamide] | 0.4 nM
COc1c(Br)cc(Br)c(OC)c1-n1c(NS(=O)(=O)[C@@H](C)[C@H](C)c2ncc(F)cn2)nnc1-c1ccc(C)o1 [Example 189.0, (2S,3R)—N-(4-(3,5-Dibromo-2,6-dimethoxyphenyl)-5-(5-methyl-2-furanyl)-4H-1,2,4-triazol-3-yl)-3-(5-fluoro-2-pyrimidinyl)-2-butanesulfonamide] | 110 nM
COc1cccc(OC)c1-n1c(NS(=O)(=O)C[C@H](O)c2ccc(C#N)cn2)nnc1-c1ccc(C)o1 (single isomer, unassigned) [Example 66.0, (2R)-2-(5-Cyano-2-pyridinyl)-N-(4-(2,6-dimethoxyphenyl)-5-(5-methyl-2-furanyl)-4H-1,2,4-triazol-3-yl)-2-hydroxyethanesulfonamide or (2S)-2-(5-cyano-2-pyridinyl)-N-(4-(2,6-dimethoxyphenyl)-5-(5-methyl-2-furanyl)-4H-1,2,4-triazol-3-yl)-2-hydroxyethanesulfonamide] | 0.32 nM
C[C@@H](Cc1ncc(F)cn1)S(=O)(=O)Nc1nnc(-c2ccco2)n1-c1cccc2ccccc12 (mixture of isomers) [Example 314.0, (2R)-1-(5-Fluoro-2-pyrimidinyl)-N-(5-(2-furanyl)-4-(1-naphthalenyl)-4H-1,2,4-triazol-3-yl)-2-propanesulfonamide and (2S)-1-(5-fluoro-2-pyrimidinyl)-N-(5-(2-furanyl)-4-(1-naphthalenyl)-4H-1,2,4-triazol-3-yl)-2-propanesulfonamide] | 230 nM
COc1cccc(OC)c1-n1c(NS(=O)(=O)[C@H](C)[C@H](O)c2cscn2)nnc1-c1ccc(C)o1 (single isomer, unassigned) [Example 309.0, (1S,2S)—N-(4-(2,6-Dimethoxyphenyl)-5-(5-methyl-2-furanyl)-4H-1,2,4-triazol-3-yl)-1-hydroxy-1-(1,3-thiazol-4-yl)-2-propanesulfonamide or (1R,2R)—N-(4-(2,6-dimethoxyphenyl)-5-(5-methyl-2-furanyl)-4H-1,2,4-triazol-3-yl)-1-hydroxy-1-(1,3-thiazol-4-yl)-2-propanesulfonamide] | 61 nM
COc1cccc(OC)c1-n1c(NS(=O)(=O)[C@H](C)CN2C(=O)CCC[C@]2(C)C#N)nnc1-c1ccco1 (single isomer, unassigned) [Example 342.0] | 121 nM
COc1cccc(OC)c1-n1c(NS(=O)(=O)[C@H]2C[C@@H](O)CN(c3cc(C#N)ccn3)C2)nnc1-c1ccc(C)o1 (racemic) [Example 333.0, (3S,5R)-1-(4-Cyanopyridin-2-yl)-N-(4-(2,6-dimethoxyphenyl)-5-(5-methylfuran-2-yl)-4H-1,2,4-triazol-3-yl)-5-hydroxypiperidine-3-sulfonamide and (3R,5S)-1-(4-cyanopyridin-2-yl)-N-(4-(2,6-dimethoxyphenyl)-5-(5-methylfuran-2-yl)-4H-1,2,4-triazol-3-yl)-5-hydroxypiperidine-3-sulfonamide] | 0.45 nM
COc1cccc(OC)c1-n1c(NS(=O)(=O)[C@@H](C)[C@](C)(N)c2ncc(F)cn2)nnc1-c1ccc(C)o1 (single isomer, unassigned) [Example 246.0] | 1.4 nM
COc1cccc(OC)c1-n1c(NS(=O)(=O)[C@H](C)Cc2ccc(C#N)cn2)nnc1-c1ccco1 (single isomer, unassigned) [Example 30.0, (2R)-1-(5-cyano-2-pyridinyl)-N-(4-(2,6-dimethoxyphenyl)-5-(2-furanyl)-4H-1,2,4-triazol-3-yl)-2-propanesulfonamide or (2S)-1-(5-cyano-2-pyridinyl)-N-(4-(2,6-dimethoxyphenyl)-5-(2-furanyl)-4H-1,2,4-triazol-3-yl)-2-propanesulfonamide] | 1.2 nM
COc1cccc(OC)c1-n1c(NS(=O)(=O)[C@H](C)Cc2ncc(F)cn2)nnc1-c1cc(C)c(C)o1 (single isomer, unassigned) [Example 91.0, (R)—N-(4-(2,6-Dimethoxyphenyl)-5-(4,5-dimethylfuran-2-yl)-4H-1,2,4-triazol-3-yl)-1-(5-fluoropyrimidin-2-yl)propane-2-sulfonamide or (S)—N-(4-(2,6-dimethoxyphenyl)-5-(4,5-dimethylfuran-2-yl)-4H-1,2,4-triazol-3-yl)-1-(5-fluoropyrimidin-2-yl)propane-2-sulfonamide] | 4.2 nM
COc1cccc(OC)c1-n1c(NS(=O)(=O)[C@@H](C)[C@@H](C)c2ncc(F)cn2)nnc1-c1ccco1 (racemic) [Example 218.0, (2R,3R)—N-(4-(2,6-dimethoxyphenyl)-5-(2-furanyl)-4H-1,2,4-triazol-3-yl)-3-(5-fluoro-2-pyrimidinyl)-2-butanesulfonamide and (2S,3S)—N-(4-(2,6-dimethoxyphenyl)-5-(2-furanyl)-4H-1,2,4-triazol-3-yl)-3-(5-fluoro-2-pyrimidinyl)-2-butanesulfonamide] | 0.25 nM
COc1cccc(OC)c1-n1c(NS(=O)(=O)CCN2C(=O)[C@@H](C)C[C@]2(C)C#N)nnc1-c1ccco1 (single isomer, unassigned) [Example 168.0] | 0.97 nM
